Activity calls are given as the source filed them. The calls are words filed in the database; no cut-off is given here.
tested on: HUVEC; assay: Inhibition of TNFalpha-induced IL-6 gene expression in HUVEC at 10 uM; assay type: functional, cell-based; settings: Homo sapiens

For C[S+]([O-])c1ccc(-c2nc(-c3ccc(F)cc3)c(-c3ccncc3)[nH]2)cc1 (centres undefined), the inhibition was “Active”.
Cn1c(-c2cn([C@H]3CCNC[C@@H]3F)nn2)nc(-c2ccc(F)cc2)c1-c1ccncc1 was tested, and the inhibition was “Active”.
In the case of Cn1cnc(-c2ccc(F)cc2)c1-c1ccncc1, the inhibition is reported as “Active”.
Cn1c(-c2cn([C@@H]3[C@@H](O)[C@H](O)[C@@H](CO)O[C@@H]3O)nn2)nc(-c2ccc(F)cc2)c1-c1ccncc1 was tested, and the inhibition was “Active”.

tested on: HUVEC; assay: Inhibition of TNFalpha-induced COX2 gene expression in HUVEC at 10 uM; assay type: functional, cell-based; settings: Homo sapiens

With C[S+]([O-])c1ccc(-c2nc(-c3ccc(F)cc3)c(-c3ccncc3)[nH]2)cc1 (centres undefined) the inhibition was “Active”.
For Cn1c(-c2cn([C@H]3CCNC[C@@H]3F)nn2)nc(-c2ccc(F)cc2)c1-c1ccncc1, the inhibition was “Active”.
In the case of Cn1cnc(-c2ccc(F)cc2)c1-c1ccncc1, the inhibition is reported as “Active”.
Cn1c(-c2cn([C@@H]3[C@@H](O)[C@H](O)[C@@H](CO)O[C@@H]3O)nn2)nc(-c2ccc(F)cc2)c1-c1ccncc1 was tested, and the inhibition was “Active”.

target: Mitogen-activated protein kinase 14 (Homo sapiens, UniProt Q16539); assay: Inhibition of p38a MAPK (unknown origin) by radiometric assay; settings: not given
Sequence (Q16539 whole entry): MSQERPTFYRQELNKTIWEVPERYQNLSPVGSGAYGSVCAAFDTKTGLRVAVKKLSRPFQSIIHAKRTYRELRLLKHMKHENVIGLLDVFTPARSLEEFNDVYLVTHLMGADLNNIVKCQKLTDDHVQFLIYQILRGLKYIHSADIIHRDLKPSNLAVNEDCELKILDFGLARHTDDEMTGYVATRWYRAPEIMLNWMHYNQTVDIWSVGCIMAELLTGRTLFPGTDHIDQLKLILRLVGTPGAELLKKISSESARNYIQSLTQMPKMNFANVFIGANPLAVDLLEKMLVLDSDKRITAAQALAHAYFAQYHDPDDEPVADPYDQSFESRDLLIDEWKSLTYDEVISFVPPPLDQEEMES

Compared with OC[C@H]1O[C@H](O)[C@H](n2cc(-c3nc(-c4ccc(F)cc4)c(-c4ccncc4)o3)nn2)[C@@H](O)[C@@H]1O, O[C@@H]1[C@@H](O)[C@H](O)O[C@H](Cn2cc(-c3nc(-c4ccc(F)cc4)c(-c4ccncc4)o3)nn2)[C@H]1O is 4.8-fold higher in IC50: 1190 nM for the first, 5730 nM for the second. The first is the more potent here.

Compared with O=C(O)c1ccc(-n2cc(-c3nc(-c4ccc(F)cc4)c(-c4ccncc4)o3)nn2)cc1, CN(C)c1ccc(-n2cc(-c3nc(-c4ccc(F)cc4)c(-c4ccncc4)o3)nn2)cc1 is 100-fold higher in IC50: 190 nM for the first, 19500 nM for the second.

Compared with Cn1c(-c2cn([C@H]3CCNC[C@@H]3F)nn2)nc(-c2ccc(F)cc2)c1-c1ccncc1, Cn1c(-c2cn(CCO)nn2)nc(-c2ccc(F)cc2)c1-c1ccncc1 is 5.2-fold higher in IC50: 96 nM for the first, 500 nM for the second.

Going from CCOC(=O)Cn1cc(-c2nc(-c3ccc(F)cc3)c(-c3ccncc3)n2C)nn1 to Cn1c(-c2cn(CC(=O)O)nn2)nc(-c2ccc(F)cc2)c1-c1ccncc1 [listing 1 of 2 here], the IC50 falls from 1870 nM to 430 nM (4.3-fold). The second is the more potent here.

Cn1c(-c2cn(C(C)(C)C(=O)O)nn2)nc(-c2ccc(F)cc2)c1-c1ccncc1 and C[C@@H](C(=O)O)n1cc(-c2nc(-c3ccc(F)cc3)c(-c3ccncc3)n2C)nn1 are within 1.5-fold of each other in IC50: 1490 nM for the first, 1440 nM for the second.

Going from Fc1ccc(-c2nc(-c3cn(Cc4ccccc4)nn3)oc2-c2ccncc2)cc1 to Oc1ccccc1-n1cc(-c2nc(-c3ccc(F)cc3)c(-c3ccncc3)o2)nn1, the IC50 falls from 158000 nM to 2170 nM (73-fold).

CC(=O)OC[C@H]1O[C@H](OC(C)=O)[C@H](n2cc(-c3nc(-c4ccc(F)cc4)c(-c4ccncc4)n3C)nn2)[C@@H](OC(C)=O)[C@@H]1OC(C)=O and CC(=O)OC[C@H]1O[C@H](OC(C)=O)[C@H](n2cc(-c3nc(-c4ccc(F)cc4)c(-c4ccncc4)o3)nn2)[C@@H](OC(C)=O)[C@@H]1OC(C)=O cannot be ordered by IC50: > 100000 nM for the first, > 100000 nM for the second.

First: Cn1c(-c2cn(CCOCCOCCOCCOCCOCCOCCOCCO)nn2)nc(-c2ccc(F)cc2)c1-c1ccncc1
Second: OCCOCCOCCOCCOCCOCCOCCOCCn1cc(-c2nc(-c3ccc(F)cc3)c(-c3ccncc3)o2)nn1
The IC50 of the first is 2-fold lower: 11600 nM for the first, 23500 nM for the second.

Going from Cn1c(-c2cn(-c3cccc(C(=O)NCCCO)c3)nn2)nc(-c2ccc(F)cc2)c1-c1ccncc1 to Cn1c(-c2cn(-c3cccc(C(=O)O)c3)nn2)nc(-c2ccc(F)cc2)c1-c1ccncc1 [listing 1 of 2 here], the IC50 falls from 290 nM to 185 nM (1.6-fold).

Cn1c(-c2cn(CC(=O)NCCO)nn2)nc(-c2ccc(F)cc2)c1-c1ccncc1 and Cn1c(-c2cn(CC(=O)O)nn2)nc(-c2ccc(F)cc2)c1-c1ccncc1 [listing 2 of 2 here] are within 1.5-fold of each other in IC50: 890 nM for the first, 740 nM for the second.

Compared with O=C(O)c1ccccc1-n1cc(-c2nc(-c3ccc(F)cc3)c(-c3ccncc3)o2)nn1, Cn1c(-c2cn(-c3ccccc3C(=O)O)nn2)nc(-c2ccc(F)cc2)c1-c1ccncc1 is 4.3-fold lower in IC50: 6510 nM for the first, 1530 nM for the second.

Going from C#Cc1nc(-c2ccc(F)cc2)c(-c2ccncc2)n1C to Cn1c(C#CCO)nc(-c2ccc(F)cc2)c1-c1ccncc1, the IC50 falls from 730 nM to 460 nM (1.6-fold).

Going from O=C(O)[C@H]1OC(n2cc(-c3nc(-c4ccc(F)cc4)c(-c4ccncc4)o3)nn2)[C@H](O)[C@@H](O)[C@@H]1O (some centres undefined) to Cn1c(-c2cn(C3O[C@H](C(=O)O)[C@@H](O)[C@H](O)[C@H]3O)nn2)nc(-c2ccc(F)cc2)c1-c1ccncc1 (some centres undefined), the IC50 falls from 1170 nM to 590 nM (2-fold). The second is the more potent here.

First: Cn1c(-c2cn(CCOCCOCCOCCO)nn2)nc(-c2ccc(F)cc2)c1-c1ccncc1
Second: Cn1c(-c2cn(CCOCCOCCOCCN)nn2)nc(-c2ccc(F)cc2)c1-c1ccncc1
The IC50 of the first is 2.2-fold higher: 11200 nM for the first, 5180 nM for the second.

Going from Cn1cnc(-c2ccc(F)cc2)c1-c1ccncc1 to Cn1c(-c2c[nH]nn2)nc(-c2ccc(F)cc2)c1-c1ccncc1, the IC50 falls from 430 nM to 140 nM (3.1-fold). The second is the more potent here.

Going from C[C@@H](C(=O)O)n1cc(-c2nc(-c3ccc(F)cc3)c(-c3ccncc3)o2)nn1 to O=C(O)Cn1cc(-c2nc(-c3ccc(F)cc3)c(-c3ccncc3)o2)nn1, the IC50 falls from 11400 nM to 3200 nM (3.6-fold).

Going from Cn1c(-c2cnnn2CC(=O)O)nc(-c2ccc(F)cc2)c1-c1ccncc1 to CCOC(=O)Cn1nncc1-c1nc(-c2ccc(F)cc2)c(-c2ccncc2)n1C, the IC50 rises from 4200 nM to 56000 nM (13-fold). The first is the more potent here.

Compared with COC(=O)c1cccc(-n2cc(-c3nc(-c4ccc(F)cc4)c(-c4ccncc4)n3C)nn2)c1, Cn1c(-c2cn(-c3cccc(C(=O)O)c3)nn2)nc(-c2ccc(F)cc2)c1-c1ccncc1 [listing 2 of 2 here] is 11-fold lower in IC50: 990 nM for the first, 91 nM for the second.

Cn1c(-c2cn(CCOP(=O)(O)O)nn2)nc(-c2ccc(F)cc2)c1-c1ccncc1 and Cn1c(-c2cn(CCP(=O)(O)O)nn2)nc(-c2ccc(F)cc2)c1-c1ccncc1 are within 1.5-fold of each other in IC50: 250 nM for the first, 350 nM for the second.

Going from C#Cc1nc(-c2ccc(F)cc2)c(-c2ccncc2)o1 to Fc1ccc(-c2nc(-c3c[nH]nn3)oc2-c2ccncc2)cc1, the IC50 falls from 1790 nM to 380 nM (4.7-fold).

Going from C[C@H](Nc1nccc(-c2c(-c3ccc(F)cc3)nc3nc(N)ccn23)n1)c1ccccc1 to Cn1c(-c2cn(-c3ccccc3O)nn2)nc(-c2ccc(F)cc2)c1-c1ccncc1, the IC50 rises from 6 nM to 1590 nM (260-fold).

Going from CCOP(=O)(CCn1cc(-c2nc(-c3ccc(F)cc3)c(-c3ccncc3)n2C)nn1)OCC to Cn1c(-c2cn([C@@H](CC(=O)O)C(=O)O)nn2)nc(-c2ccc(F)cc2)c1-c1ccncc1, the IC50 falls from > 100000 nM to 2300 nM.

Going from O=C(c1ccc(-n2cc(-c3nc(-c4ccc(F)cc4)c(-c4ccncc4)o3)nn2)cc1)N1CCN(CCO)CC1 to Cn1c(-c2cn(-c3ccc(C(=O)O)cc3)nn2)nc(-c2ccc(F)cc2)c1-c1ccncc1, the IC50 falls from 2400 nM to 140 nM (17-fold).

First: CN(C)c1ccc(-n2cc(-c3nc(-c4ccc(F)cc4)c(-c4ccncc4)n3C)nn2)cc1
Second: Cn1c(-c2cn([C@@H]3[C@@H](O)[C@H](O)[C@@H](CO)O[C@@H]3O)nn2)nc(-c2ccc(F)cc2)c1-c1ccncc1
The IC50 of the first is 2-fold higher: 1400 nM for the first, 710 nM for the second. The second is the more potent here.

Compared with OCCOCCOCCOCCn1cc(-c2nc(-c3ccc(F)cc3)c(-c3ccncc3)o2)nn1, Cn1c(-c2cn(CC(=O)N3CCN(CCO)CC3)nn2)nc(-c2ccc(F)cc2)c1-c1ccncc1 is 3.3-fold lower in IC50: 12500 nM for the first, 3800 nM for the second.

For Cn1c(-c2cn(C[C@H]3O[C@@H](O)[C@H](O)[C@@H](O)[C@@H]3O)nn2)nc(-c2ccc(F)cc2)c1-c1ccncc1, the IC50 was 400 nM.
